Data reported in ChEMBL document CHEMBL1201862, “PubChem BioAssay data set” (2004).
Calls of active or inactive are those of the source. No stated cut-off is given here; in the data, actives have a measured IC50 and inactives only a lower limit.

Target: Envelope glycoprotein gp160 (Human immunodeficiency virus 1, UniProt Q6QLK5)
Assay: cell-free HIV fusion peptide-binding blockers – biochemical, uHTS, fluorescence dequenching, […] (AID 1986)

Envelope glycoprotein gp160, sequence (Q6QLK5 whole entry, the tested form may be a part): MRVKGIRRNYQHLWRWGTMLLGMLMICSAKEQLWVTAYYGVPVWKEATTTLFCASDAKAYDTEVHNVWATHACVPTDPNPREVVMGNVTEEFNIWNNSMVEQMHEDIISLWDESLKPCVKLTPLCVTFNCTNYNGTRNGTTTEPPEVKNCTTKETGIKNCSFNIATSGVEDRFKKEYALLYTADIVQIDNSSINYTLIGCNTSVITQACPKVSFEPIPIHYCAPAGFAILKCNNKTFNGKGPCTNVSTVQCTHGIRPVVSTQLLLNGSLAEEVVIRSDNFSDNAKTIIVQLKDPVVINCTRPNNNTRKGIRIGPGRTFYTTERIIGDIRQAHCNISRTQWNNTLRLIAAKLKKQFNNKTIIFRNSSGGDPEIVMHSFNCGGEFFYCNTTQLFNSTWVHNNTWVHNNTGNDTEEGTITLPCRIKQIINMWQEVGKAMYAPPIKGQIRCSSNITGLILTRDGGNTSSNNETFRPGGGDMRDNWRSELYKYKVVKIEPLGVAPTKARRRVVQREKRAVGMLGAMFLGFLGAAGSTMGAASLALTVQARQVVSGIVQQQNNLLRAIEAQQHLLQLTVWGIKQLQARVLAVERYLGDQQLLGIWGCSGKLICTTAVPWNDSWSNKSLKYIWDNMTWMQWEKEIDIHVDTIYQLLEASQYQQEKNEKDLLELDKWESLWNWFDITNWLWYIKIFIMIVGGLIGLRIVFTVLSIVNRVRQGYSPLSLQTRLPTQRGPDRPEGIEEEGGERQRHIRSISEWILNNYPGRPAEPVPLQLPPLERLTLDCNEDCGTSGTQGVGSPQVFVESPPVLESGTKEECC

Row | Structure (SMILES) | IC50
1 | CCCCCOc1ccc(C2C(C(=O)c3ccc(C)o3)=C(O)C(=O)N2c2cc(C)on2)cc1 (configuration not stated) | 22.8 µM (active)
2 | Cc1ccc(S(=O)(=O)Oc2ccc(/C=C3\C(=N)N4N=C(S(C)(=O)=O)SC4=NC3=O)cc2)cc1 | 16.2 µM (active)
